Measurements from US10421718B2, “EBNA1 inhibitors and their method of use” (priority 2013, dated 2019).

Target: T1, His-EBNA1 (DNA binding domain of EBNA1, amino acids 459-607) (Epstein-Barr virus, UniProt P03211)
T1 construct: made in house; host or cells: E. coli
Assay: Inhibition of 5′-biotin-oPL4624 binding to His-EBNA1 using Alpha Screen technology
Conditions: Alpha Screen Activity (IC50, inhibition of 5′-biotin-oPL4624 binding to His-EBNA1), 15 nM His-EBNA1, 0.2 nM bt-oPL4624, 2 hr room temperature
Protocol: Inhibition of 5′-biotin-oPL4624 binding to His-EBNA1 using Alpha Screen technology: Assays were performed using the DNA binding domain of EBNA1 (amino acids 459-607), which was His-tagged (His-EBNA1) and the self-complementary biotinylated (bt) oligonucleotide with the sequence 5′-bt-[…]-ATGCTACCC-3′ (bt-oPL4624). The protein was expressed in E. coli and purified according to Barwell, et al. (Barwell J A, Bochkarev A, Pfuetzner R A, Tong H, Yang D S, Frappier L, Edwards A M. (1995) Overexpression, purification, and crystallization of the DNA binding and dimerization domains of the Epstein-Barr virus nuclear antigen 1. J Biol Chem. 270: 20556-9.). The bt-oPL4624 oligonucleotide was purchased from Integrated DNA Technologies, Inc (IDT). AlphaScreen donor, acceptor beads and white, opaque 384-well assay plates were purchased from PerkinElmer, Inc.
Assays contained 15 nM His-EBNA1, 0.2 nM bt-oPL4624, 5 μg/mL AlphaScreen streptavidin donor beads and nickel chelate acceptor beads, and a series of concentrations of test compound ranging from 3.2 nM to 100 μM in a total volume of 40 μL assay buffer (25 mM Tris, pH 7.2, 160 mM NaCl, 1 mM MgCl2). His-EBNA1 (30 nM) and bt-oPL4624 (0.4 nM) were preincubated with 10 μg/mL nickel chelate AlphaScreen acceptor bead, or 10 μg/mL streptavidin AlphaScreen donor bead, respectively, for 30 minutes at room temperature in assay buffer. Twenty microliters of His-EBNA1/acceptor bead mix and bt-oPL4624/donor bead mix were transferred to assay plates containing […] of 1:3 serial dilutions of test compounds previously prepared in DMSO at concentrations ranging from 0.32 μM to 10 mM. Nonspecific binding was determined with 5 μg/mL AlphaScreen acceptor bead in the absence of His-EBNA1. After 2 hr incubation at room temperature, the AlphaScreen signal was measured on the Envision plate reader (PerkinElmer, Inc.) at 680 nm excitation and 570 nm emission. Inhibition values at each concentration of test compound were determined by setting 100% equal to raw data values in the absence of EBNA1 and 0% equal to the raw data values in the presence of EBNA1. Nonlinear regression fits of the inhibition values to a one-site dose-response equation were performed using GraphPad Prism.

T1 sequence (P03211 459-607): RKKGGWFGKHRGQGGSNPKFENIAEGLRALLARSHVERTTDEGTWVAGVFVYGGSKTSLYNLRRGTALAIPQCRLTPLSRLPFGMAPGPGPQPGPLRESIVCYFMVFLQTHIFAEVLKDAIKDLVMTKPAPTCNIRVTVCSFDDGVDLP

| SMILES | IC50 |
| --- | --- |
| CNS(=O)(=O)c1cccc(C#Cc2cccc(C(=O)O)c2-n2cccc2)c1 [Entry 1, 3-(3-methylsulfamoyl-phenylethynyl)-2-pyrrol-1-yl-benzoic acid] | 1 to 10 µM |
| O=C(O)c1cccc(C#Cc2c[nH]c3ccccc23)c1-n1cccc1 [Entry 2, 3-(1H-indol-3-ylethynyl)-2-pyrrol-1-yl-benzoic acid] | < 1 µM |
| CS(=O)(=O)Nc1cccc(C#Cc2cccc(C(=O)O)c2-n2cccc2)c1 [Entry 3, 3-[2-(3-methanesulfonamidophenyl)ethynyl]-2-(1H-pyrrol-1-yl)benzoic acid] | < 1 µM |
| NS(=O)(=O)c1cccc(C#Cc2cccc(C(=O)O)c2-n2cccc2)c1 [Entry 4, 2-(1H-pyrrol-1-yl)-3-[2-(3-sulfamoylphenyl)ethynyl]benzoic acid] | < 1 µM |
| NC(=O)c1cccc(C#Cc2cccc(C(=O)O)c2-n2cccc2)c1 [Entry 5, 3-[2-(3-carbamoylphenyl)ethynyl]-2-(1H-pyrrol-1-yl)benzoic acid] | < 1 µM |
| O=C(O)c1cccc(C#Cc2ccc3nccn3c2)c1-n1cccc1 [Entry 6, 3-(2-{imidazo[1,2-a]pyridin-6-yl}ethynyl)-2-(1H-pyrrol-1-yl)benzoic acid] | 10 to 100 µM |
| O=C(O)c1cccc(C#Cc2ccnc(O)c2)c1-n1cccc1 [Entry 7, 3-[2-(2-hydroxypyridin-4-yl)ethynyl]-2-(1H-pyrrol-1-yl)benzoic acid] | 10 to 100 µM |
| O=C(O)c1cccc(C#Cc2ccc3cn[nH]c3c2)c1-n1cccc1 [Entry 8, 3-[2-(1H-indazol-6-yl)ethynyl]-2-(1H-pyrrol-1-yl)benzoic acid] | 1 to 10 µM |
| CC1(C)CN(c2cccc(C#Cc3cccc(C(=O)O)c3-n3cccc3)c2)C1=O [Entry 9, 3-{2-[3-(3,3-dimethyl-2-oxoazetidin-1-yl)phenyl]ethynyl}-2-(1H-pyrrol-1-yl)benzoic acid] | < 1 µM |
| CC(C)(CNc1cccc(C#Cc2cccc(C(=O)O)c2-n2cccc2)c1)C(=O)O [Entry 10, 3-(2-{3-[(2-carboxy-2,2-dimethylethyl)amino]phenyl}ethynyl)-2-(1H-pyrrol-1-yl)benzoic acid] | 1 to 10 µM |
| O=C(O)c1cccc(C#Cc2cnc3cnccn23)c1-n1cccc1 [Entry 11, 3-(2-{imidazo[1,2-a]pyrazin-3-yl}ethynyl)-2-(1H-pyrrol-1-yl)benzoic acid] | < 1 µM |
| O=C(O)c1cccc(C#Cc2cnc3ccccn23)c1-n1cccc1 [Entry 12, 3-(2-{imidazo[1,2-a]pyridin-3-yl}ethynyl)-2-(1H-pyrrol-1-yl)benzoic acid] | < 1 µM |
| O=C(O)c1cccc(C#Cc2cccc3nccn23)c1-n1cccc1 [Entry 13, 3-(2-{imidazo[1,2-a]pyridin-5-yl}ethynyl)-2-(1H-pyrrol-1-yl)benzoic acid] | 10 to 100 µM |
| O=C(O)c1cccc(C#Cc2cnc3[nH]ccc3c2)c1-n1cccc1 [Entry 14, 2-(1H-pyrrol-1-yl)-3-(2-{1H-pyrrolo[2,3-b]pyridin-5-yl}ethynyl)benzoic acid] | 1 to 10 µM |
| Cn1ccc2c(C#Cc3cccc(C(=O)O)c3-n3cccc3)cccc21 [Entry 15, 3-[2-(1-methyl-1H-indol-4-yl)ethynyl]-2-(1H-pyrrol-1-yl)benzoic acid] | < 1 µM |
| Cn1ccc2cc(C#Cc3cccc(C(=O)O)c3-n3cccc3)ccc21 [Entry 16, 3-[2-(1-methyl-1H-indol-5-yl)ethynyl]-2-(1H-pyrrol-1-yl)benzoic acid] | < 1 µM |
| O=C(O)c1cccc(C#Cc2ccc3ccsc3c2)c1-n1cccc1 [Entry 17, 3-[2-(1-benzothiophen-6-yl)ethynyl]-2-(1H-pyrrol-1-yl)benzoic acid] | 1 to 10 µM |
| O=C(O)c1cccc(C#Cc2cccc3cc[nH]c23)c1-n1cccc1 [Entry 18, 3-[2-(1H-indol-7-yl)ethynyl]-2-(1H-pyrrol-1-yl)benzoic acid] | < 1 µM |
| O=C(O)c1cccc(C#Cc2ccccc2CO)c1-n1cccc1 [Entry 19, 3-{2-[2-(hydroxymethyl)phenyl]ethynyl}-2-(1H-pyrrol-1-yl)benzoic acid] | < 1 µM |
| O=C(O)c1cccc(C#Cc2ccc(CO)cc2)c1-n1cccc1 [Entry 20, 3-{2-[4-(hydroxymethyl)phenyl]ethynyl}-2-(1H-pyrrol-1-yl)benzoic acid] | < 1 µM |

| SMILES | IC50 |
| --- | --- |
| Cc1ccc(C#Cc2cccc(C(=O)O)c2-n2c(C)ccc2C)cc1 [Entry 21, 2-(2,5-dimethyl-1H-pyrrol-1-yl)-3-[2-(4-methylphenyl)ethynyl]benzoic acid] | < 1 µM |
| Cc1ccc(C)n1-c1c(C#Cc2cccc(O)c2)cccc1C(=O)O [Entry 22, 2-(2,5-dimethyl-1H-pyrrol-1-yl)-3-[2-(3-hydroxyphenyl)ethynyl]benzoic acid] | < 1 µM |
| O=C(O)c1cccc(C#Cc2ccc3c(c2)NCC3)c1-n1cccc1 [Entry 23, 3-[2-(2,3-dihydro-1H-indol-6-yl)ethynyl]-2-(1H-pyrrol-1-yl)benzoic acid] | < 1 µM |
| Cn1cc(C#Cc2cccc(C(=O)O)c2-n2cccc2)cn1 [Entry 24, 3-[2-(1-methyl-1H-pyrazol-4-yl)ethynyl]-2-(1H-pyrrol-1-yl)benzoic acid] | 1 to 10 µM |
| Cc1nc(C#Cc2cccc(C(=O)O)c2-n2cccc2)cn1C [Entry 25, 3-[2-(1,2-dimethyl-1H-imidazol-4-yl)ethynyl]-2-(1H-pyrrol-1-yl)benzoic acid] | 10 to 100 µM |
| Cn1cncc1C#Cc1cccc(C(=O)O)c1-n1cccc1 [Entry 26, 3-[2-(1-methyl-1H-imidazol-5-yl)ethynyl]-2-(1H-pyrrol-1-yl)benzoic acid] | 10 to 100 µM |
| Cn1ccnc1C#Cc1cccc(C(=O)O)c1-n1cccc1 [Entry 27, 3-[2-(1-methyl-1H-imidazol-2-yl)ethynyl]-2-(1H-pyrrol-1-yl)benzoic acid] | 10 to 100 µM |
| O=C(O)c1cccc(C#Cc2cncs2)c1-n1cccc1 [Entry 28, 2-(1H-pyrrol-1-yl)-3-[2-(1,3-thiazol-5-yl)ethynyl]benzoic acid] | 10 to 100 µM |
| O=C(O)c1cccc(C#Cc2cscn2)c1-n1cccc1 [Entry 29, 2-(1H-pyrrol-1-yl)-3-[2-(1,3-thiazol-4-yl)ethynyl]benzoic acid] | < 1 µM |
| O=C(O)c1cccc(C#Cc2ccc3cc[nH]c3n2)c1-n1cccc1 [Entry 30, 2-(1H-pyrrol-1-yl)-3-(2-{1H-pyrrolo[2,3-b]pyridin-6-yl}ethynyl)benzoic acid] | 1 to 10 µM |
| CC(C)(O)c1cccc(C#Cc2cccc(C(=O)O)c2-n2cccc2)c1 [Entry 31, 3-{2-[3-(2-hydroxypropan-2-yl)phenyl]ethynyl}-2-(1H-pyrrol-1-yl)benzoic acid] | 1 to 10 µM |
| CC(C)C(O)C#Cc1cccc(C(=O)O)c1-n1cccc1 (stereo not shown) [Entry 32, 3-(3-hydroxy-4-methylpent-1-yn-1-yl)-2-(1H-pyrrol-1-yl)benzoic acid] | 1 to 10 µM |
| O=C(O)c1cccc(C#CC(O)c2ccccc2)c1-n1cccc1 (stereo not shown) [Entry 33, 3-(3-hydroxy-3-phenylprop-1-yn-1-yl)-2-(1H-pyrrol-1-yl)benzoic acid] | < 1 µM |
| O=C(O)c1cccc(C#Cc2c[nH]c3ncccc23)c1-n1cccc1 [Entry 34, 2-(1H-pyrrol-1-yl)-3-(2-{1H-pyrrolo[2,3-b]pyridin-3-yl}ethynyl)benzoic acid] | < 1 µM |
| O=C(O)c1cccc(C#Cc2cccc3[nH]ccc23)c1-n1cccc1 [Entry 35, 3-[2-(1H-indol-4-yl)ethynyl]-2-(1H-pyrrol-1-yl)benzoic acid] | < 1 µM |
| O=C(O)c1cccc(C#Cc2ccn3ncnc3c2)c1-n1cccc1 [Entry 36, 2-(1H-pyrrol-1-yl)-3-(2-{[1,2,4]triazolo[1,5-a]pyridin-7-yl}ethynyl)benzoic acid] | < 1 µM |
| CN(C)S(=O)(=O)c1cccc(C#Cc2cccc(C(=O)O)c2-n2cccc2)c1 [Entry 37, 3-{2-[3-(dimethylsulfamoyl)phenyl]ethynyl}-2-(1H-pyrrol-1-yl)benzoic acid] | < 1 µM |
| O=C(O)c1cccc(C#Cc2cc(O)cc(F)c2)c1-n1cccc1 [Entry 38, 3-[2-(3-fluoro-5-hydroxyphenyl)ethynyl]-2-(1H-pyrrol-1-yl)benzoic acid] | < 1 µM |
| O=C(O)c1cccc(C#Cc2cccc(CO)c2)c1-n1cccc1 [Entry 39, 3-{2-[3-(hydroxymethyl)phenyl]ethynyl}-2-(1H-pyrrol-1-yl)benzoic acid] | < 1 µM |
| O=C(O)c1cccc(C#Cc2cncc(O)c2)c1-n1cccc1 [Entry 40, 3-[2-(5-hydroxypyridin-3-yl)ethynyl]-2-(1H-pyrrol-1-yl)benzoic acid] | 10 to 100 µM |
